Data as given in the supplement of paper PMC10307832.

Legend:
Test in all cases: relative viability (nuclei count vs DMSO), 5 days (fraction); higher = more cells survive
CAL-12T = test system: CAL-12T
Outline: (§1)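 A single step with final 0.05% Triton X-100, 1% formaldehyde and 1 ug/ml Hoechst fixed the cells and stained nuclei 5 days after treatment. Lung cancer cell lines in 1536-well plates had been treated by pin tool the day after seeding with one drug alone or a fixed anchor-drug dose plus five library-drug doses (not always all listed) in √10 steps, and nuclei were counted on 4× images. Relative viability is the ratio of nuclei in treated wells to nuclei in vehicle wells, taken as the median of duplicate plates.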

COR-L 105 = test system: COR-L 105
Outline: as §1

EPLC-272H = test system: EPLC-272H
Outline: as §1

HCC-15 = test system: HCC-15
Outline: as §1

HCC-44 = test system: HCC-44
Outline: as §1

LC-2-ad = test system: LC-2-ad
Outline: as §1

LCLC-97TM1 = test system: LCLC-97TM1
Outline: as §1

NCI-H1395 = test system: NCI-H1395
Outline: as §1

NCI-H1563 = test system: NCI-H1563
Outline: as §1

NCI-H1734 = test system: NCI-H1734
Outline: as §1

NCI-H1792 = test system: NCI-H1792
Outline: as §1

NCI-H1915 = test system: NCI-H1915
Outline: as §1

NCI-H1975 = test system: NCI-H1975
Outline: as §1

NCI-H2023 = test system: NCI-H2023
Outline: as §1

NCI-H2342 = test system: NCI-H2342
Outline: as §1

NCI-H2347 = test system: NCI-H2347
Outline: as §1

NCI-H2405 = test system: NCI-H2405
Outline: as §1

NCI-H520 = test system: NCI-H520
Outline: as §1

NCI-H838 = test system: NCI-H838
Outline: as §1

SW 1573 = test system: SW 1573
Outline: as §1

SW 900 = test system: SW 900
Outline: as §1

UMC-11 = test system: UMC-11
Outline: as §1

Cc1cn(-c2cc(NC(=O)c3ccc(C)c(Nc4nccc(-c5cccnc5)n4)c3)cc(C(F)(F)F)c2)cn1 [Nilotinib] + N=C(N)NC(=N)NCCc1ccccc1 [Phenformin] (partner 250 µM)
relative viability (CAL-12T; first compound 0.001 µM): 0.554
relative viability (CAL-12T; first compound 0.003162 µM): 0.563
relative viability (CAL-12T; first compound 0.01 µM): 0.701
relative viability (CAL-12T; first compound 0.03162 µM): 0.436
relative viability (CAL-12T; first compound 0.1 µM): 0.47
relative viability (COR-L 105; first compound 0.001 µM): 0.428
relative viability (COR-L 105; first compound 0.003162 µM): 0.47
relative viability (COR-L 105; first compound 0.01 µM): 0.581
relative viability (COR-L 105; first compound 0.03162 µM): 0.409
relative viability (COR-L 105; first compound 0.1 µM): 0.438
relative viability (EPLC-272H; first compound 0.001 µM): 0.305
relative viability (EPLC-272H; first compound 0.003162 µM): 0.283
relative viability (EPLC-272H; first compound 0.01 µM): 0.262
relative viability (EPLC-272H; first compound 0.03162 µM): 0.234
relative viability (EPLC-272H; first compound 0.1 µM): 0.298
relative viability (HCC-15; first compound 0.001 µM): 0.436
relative viability (HCC-15; first compound 0.003162 µM): 0.598
relative viability (HCC-15; first compound 0.01 µM): 0.508
relative viability (HCC-15; first compound 0.03162 µM): 0.331
relative viability (HCC-15; first compound 0.1 µM): 0.404
relative viability (HCC-44; first compound 0.001 µM): 0.154
relative viability (HCC-44; first compound 0.003162 µM): 0.145
relative viability (HCC-44; first compound 0.01 µM): 0.186
relative viability (HCC-44; first compound 0.03162 µM): 0.179
relative viability (HCC-44; first compound 0.1 µM): 0.166
relative viability (LC-2-ad; first compound 0.001 µM): 0.647
relative viability (LC-2-ad; first compound 0.003162 µM): 0.659
relative viability (LC-2-ad; first compound 0.01 µM): 0.557
relative viability (LC-2-ad; first compound 0.03162 µM): 0.609
relative viability (LC-2-ad; first compound 0.1 µM): 0.562
relative viability (LCLC-97TM1; first compound 0.001 µM): 0.393
relative viability (LCLC-97TM1; first compound 0.003162 µM): 0.468
relative viability (LCLC-97TM1; first compound 0.01 µM): 0.467
relative viability (LCLC-97TM1; first compound 0.03162 µM): 0.426
relative viability (LCLC-97TM1; first compound 0.1 µM): 0.453
relative viability (NCI-H1395; first compound 0.001 µM): 0.453
relative viability (NCI-H1395; first compound 0.003162 µM): 0.403
relative viability (NCI-H1395; first compound 0.01 µM): 0.49
relative viability (NCI-H1395; first compound 0.03162 µM): 0.43
relative viability (NCI-H1395; first compound 0.1 µM): 0.415
relative viability (NCI-H1563; first compound 0.001 µM): 0.635
relative viability (NCI-H1563; first compound 0.003162 µM): 0.689
relative viability (NCI-H1563; first compound 0.01 µM): 0.609
relative viability (NCI-H1563; first compound 0.03162 µM): 0.635
relative viability (NCI-H1563; first compound 0.1 µM): 0.61
relative viability (NCI-H1734; first compound 0.001 µM): 0.359
relative viability (NCI-H1734; first compound 0.003162 µM): 0.396
relative viability (NCI-H1734; first compound 0.01 µM): 0.368
relative viability (NCI-H1734; first compound 0.03162 µM): 0.27
relative viability (NCI-H1734; first compound 0.1 µM): 0.3
relative viability (NCI-H1792; first compound 0.001 µM): 0.277
relative viability (NCI-H1792; first compound 0.003162 µM): 0.318
relative viability (NCI-H1792; first compound 0.01 µM): 0.164
relative viability (NCI-H1792; first compound 0.03162 µM): 0.203
relative viability (NCI-H1792; first compound 0.1 µM): 0.259
relative viability (NCI-H1915; first compound 0.001 µM): 0.372
relative viability (NCI-H1915; first compound 0.003162 µM): 0.394
relative viability (NCI-H1915; first compound 0.01 µM): 0.413
relative viability (NCI-H1915; first compound 0.03162 µM): 0.372
relative viability (NCI-H1915; first compound 0.1 µM): 0.381
relative viability (NCI-H1975; first compound 0.001 µM): 0.406
relative viability (NCI-H1975; first compound 0.003162 µM): 0.438
relative viability (NCI-H1975; first compound 0.01 µM): 0.413
relative viability (NCI-H1975; first compound 0.03162 µM): 0.363
relative viability (NCI-H1975; first compound 0.1 µM): 0.378
relative viability (NCI-H2023; first compound 0.001 µM): 0.461
relative viability (NCI-H2023; first compound 0.003162 µM): 0.455
relative viability (NCI-H2023; first compound 0.01 µM): 0.571
relative viability (NCI-H2023; first compound 0.03162 µM): 0.325
relative viability (NCI-H2023; first compound 0.1 µM): 0.361
relative viability (NCI-H2342; first compound 0.001 µM): 0.534
relative viability (NCI-H2342; first compound 0.003162 µM): 0.614
relative viability (NCI-H2342; first compound 0.01 µM): 0.556
relative viability (NCI-H2342; first compound 0.03162 µM): 0.523
relative viability (NCI-H2342; first compound 0.1 µM): 0.504
relative viability (NCI-H2347; first compound 0.001 µM): 0.386
relative viability (NCI-H2347; first compound 0.003162 µM): 0.308
relative viability (NCI-H2347; first compound 0.01 µM): 0.551
relative viability (NCI-H2347; first compound 0.03162 µM): 0.277
relative viability (NCI-H2347; first compound 0.1 µM): 0.327
relative viability (NCI-H2405; first compound 0.001 µM): 0.381
relative viability (NCI-H2405; first compound 0.003162 µM): 0.357
relative viability (NCI-H2405; first compound 0.01 µM): 0.397
relative viability (NCI-H2405; first compound 0.03162 µM): 0.356
relative viability (NCI-H2405; first compound 0.1 µM): 0.346
relative viability (NCI-H520; first compound 0.001 µM): 0.707
relative viability (NCI-H520; first compound 0.01 µM): 0.655
relative viability (NCI-H520; first compound 0.03162 µM): 0.447
relative viability (NCI-H520; first compound 0.1 µM): 0.428
relative viability (NCI-H838; first compound 0.001 µM): 0.599
relative viability (NCI-H838; first compound 0.003162 µM): 0.613
relative viability (NCI-H838; first compound 0.01 µM): 0.695
relative viability (NCI-H838; first compound 0.03162 µM): 0.492
relative viability (NCI-H838; first compound 0.1 µM): 0.51
relative viability (SW 1573; first compound 0.001 µM): 0.405
relative viability (SW 1573; first compound 0.003162 µM): 0.445
relative viability (SW 1573; first compound 0.01 µM): 0.412
relative viability (SW 1573; first compound 0.03162 µM): 0.179
relative viability (SW 1573; first compound 0.1 µM): 0.289
relative viability (SW 900; first compound 0.001 µM): 0.605
relative viability (SW 900; first compound 0.003162 µM): 0.634
relative viability (SW 900; first compound 0.01 µM): 0.612
relative viability (SW 900; first compound 0.03162 µM): 0.44
relative viability (SW 900; first compound 0.1 µM): 0.408
relative viability (UMC-11; first compound 0.001 µM): 0.312
relative viability (UMC-11; first compound 0.003162 µM): 0.344
relative viability (UMC-11; first compound 0.01 µM): 0.324
relative viability (UMC-11; first compound 0.1 µM): 0.217
